Laboratory results reported in publication PMC6522930, “Design, synthesis and biological activity evaluation of a new class of 2,4-thiazolidinedione compounds as insulin enhancers” (Journal of Enzyme Inhibition and Medicinal Chemistry, 2019).

Columns and labels:
[1] = tested on: healthy mice; experiment: Insulin tolerance test (blood glucose under insulin load); type: in vivo
Protocol: (§1) (1) Glucose tolerance test: The healthy mice (20 ± 2 g) were selected. After 1 week of acclimation, mice with no body surface damage, good general condition and flexible reaction were selected for the experiment. The test compounds were dissolved with DMSO, and were given a dose volume of 0.2 ml 10 g^−1, and a dose of 10 mg kg^−1, and given by gavage (oral) once a day. […] The mice were given the drug for 10 d, and after the last dose, the mice fasted for 12 h. The next day, blood was collected from the tail vein of the mice before and after the sugar load for 1 h and 2 h, and the blood glucose level of the mice before and after the sugar load was measured by the glucometer. […] The 12 h of fasting after the last administration, blood was taken from the orbital venous plexus (used to measure the blood glucose level after fasting). Each group was immediately given a subcutaneous injection of 0.2 μg kg^−1 of insulin. After 1 h and 2 h of injection, blood was taken again. (3) Cell survival experiment: The HUVEC cells were inoculated on the 96-well plate at the initial concentration of 3 × 10^3 cells/holes, and 100 μl RPMI 1640 medium were added to each hole. At 5% CO2 and 37 °C cell cultivation in 24 h, every pore solution in different concentrations. […] And determine the hole under 460 nm wavelength absorbance value (A).

[2] = tested on: HUVEC cells; experiment: Cell survival experiment (cytotoxicity); type: cell-based; conditions: for Cell survival rate: HUVEC cells
Protocol: as §1

[3] = target: T1, PPARα (Homo sapiens, UniProt Q07869); experiment: In vitro activation of PPARα (cells containing PPAR, EC50); type: cell-based; conditions: n ≥ 8, 24 h; for EC50: read-out: EC50 ± SD PPARα
T1 construct: expressed in transfected cells
T1 sequence (Q07869 1-468): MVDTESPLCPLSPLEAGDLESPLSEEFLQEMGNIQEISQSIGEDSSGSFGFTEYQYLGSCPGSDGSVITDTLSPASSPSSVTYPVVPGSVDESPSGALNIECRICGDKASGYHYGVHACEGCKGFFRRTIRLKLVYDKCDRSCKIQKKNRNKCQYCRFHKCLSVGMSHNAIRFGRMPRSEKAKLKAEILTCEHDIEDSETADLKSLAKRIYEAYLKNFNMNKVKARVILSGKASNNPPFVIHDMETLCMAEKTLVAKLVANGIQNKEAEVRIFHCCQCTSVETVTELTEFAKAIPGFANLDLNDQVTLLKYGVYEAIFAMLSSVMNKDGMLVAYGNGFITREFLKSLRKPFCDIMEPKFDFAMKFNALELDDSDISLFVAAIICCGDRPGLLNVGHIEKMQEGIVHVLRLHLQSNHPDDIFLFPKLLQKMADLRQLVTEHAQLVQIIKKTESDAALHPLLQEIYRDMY
Protocol: (§2) According to the literature, the cells containing PPAR (α, β and γ) were obtained and transfected into 96-well plates the day before for cells culture. Transfection was performed according to the instructions of human PPAR enzyme-linked immunoassay. […] After 24 h, the drugs were added, and 20 μl of MTT was added to each well for another 6 h, and the cell liquid was collected by removing the culture medium, and 150 μl of DMSO was added to each hole. And the absorbance value (A) of each hole was measured under the wavelength of 460 nm.

[4] = tested on: healthy mice; experiment: Oral glucose tolerance test; type: in vivo
Protocol: In vivo experiments, glucose tolerance test, insulin tolerance test, cell survival experiment and acute toxicity were used as the test indicators (Tables 2, [3] and [4]). In Table 2, we chose dose 10 mg kg^−1 d^−1 and used oral administration. […] The mice were given the drug for 10 d, blood was collected from the tail vein of the mice before and after the sugar load for 1 h and 2 h, and the blood glucose level of the mice before and after the sugar load was measured by the glucometer.
as §1

[5] = Dissociation degree (pKa); type: physicochemical
From the text: (§3) Drug in vitro experiment was one of the basic contents to evaluate drugs activity, and it was a necessary approach to research drugs. Drugs’ efficacy was often affected by some physical and chemical properties of compounds, such as lipid–water partition coefficient (log p), and dissociation degree (pKa). […] In Table 1, we could find that target compounds were fat-soluble. The fat-soluble compounds were favourable for drugs absorption, and drugs were easy to enter the cells. […] The pKa will affect the absorption and delivery of the drugs, different environmental (acid and alkalinity) medicine may be different, sometimes exists in the form of ions, sometimes exists in the form of molecules. Usually in the form of ion drugs has no effect. Therefore, it was necessary to study the dissociation degree (pKa) of drugs to study the pharmacodynamics. […] After the physical and chemical properties were studied, the biological activity was studied. […] After that, the target compounds 6a, 6e, 6f, 6g and 6i had good biological activity and were preliminarily screened out for further study on PPARγ receptor agonist activity (Figure 5).

[6] = Acute toxicity test (LD50); type: in vivo; conditions: oral administration; n ≥ 3
[7] = Lipid–water partition coefficient (log p); type: physicochemical
From the text: as §3

[8] = target: T2, PPARγ (Homo sapiens, UniProt P37231); experiment: In vitro activation of PPARγ (cells containing PPAR, EC50); type: cell-based; conditions: n ≥ 8; 24 h; read-out: EC50 ± SD PPARγ
T2 construct: expressed in transfected cells
T2 sequence (P37231 1-505): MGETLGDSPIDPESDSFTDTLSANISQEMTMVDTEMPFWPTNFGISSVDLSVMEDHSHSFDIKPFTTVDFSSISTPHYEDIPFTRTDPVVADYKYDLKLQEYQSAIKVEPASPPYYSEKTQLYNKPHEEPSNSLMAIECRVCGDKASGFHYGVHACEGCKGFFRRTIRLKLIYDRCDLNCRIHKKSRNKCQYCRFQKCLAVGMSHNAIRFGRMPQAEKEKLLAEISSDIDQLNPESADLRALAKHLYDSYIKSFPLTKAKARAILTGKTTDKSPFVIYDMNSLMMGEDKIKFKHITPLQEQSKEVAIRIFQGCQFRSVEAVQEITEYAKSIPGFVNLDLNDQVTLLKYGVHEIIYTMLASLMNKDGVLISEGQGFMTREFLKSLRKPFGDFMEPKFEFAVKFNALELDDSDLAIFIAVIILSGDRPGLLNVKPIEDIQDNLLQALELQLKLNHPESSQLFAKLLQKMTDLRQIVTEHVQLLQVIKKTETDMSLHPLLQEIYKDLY
Protocol: as §2

[9] = target: T3, PPARβ (Homo sapiens, UniProt Q03181); experiment: In vitro activation of PPARβ (cells containing PPAR, EC50); type: cell-based; conditions: n ≥ 8; 24 h; read-out: EC50 ± SD PPARβ
T3 construct: expressed in transfected cells
T3 sequence (Q03181 1-441): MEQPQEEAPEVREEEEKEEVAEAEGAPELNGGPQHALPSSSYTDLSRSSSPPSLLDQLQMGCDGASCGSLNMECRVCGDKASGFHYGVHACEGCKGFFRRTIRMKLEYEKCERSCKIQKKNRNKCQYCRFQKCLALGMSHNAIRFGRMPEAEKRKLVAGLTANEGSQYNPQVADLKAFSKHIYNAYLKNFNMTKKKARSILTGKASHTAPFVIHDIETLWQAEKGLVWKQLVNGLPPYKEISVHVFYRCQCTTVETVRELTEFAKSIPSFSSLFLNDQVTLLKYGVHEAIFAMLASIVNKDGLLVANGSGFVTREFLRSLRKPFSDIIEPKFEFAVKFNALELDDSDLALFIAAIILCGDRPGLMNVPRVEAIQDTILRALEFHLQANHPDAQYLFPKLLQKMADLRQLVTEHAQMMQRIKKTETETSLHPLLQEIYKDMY
Protocol: as §2

pKa [5] | logP [7] | EC50 [8] [µM] | EC50 [3] [µM] | EC50 [9] [µM] | Compound | further results
10.4 | 1.77 | 1.29 ± 0.53 | 12.9 ± 1.29 | 9.18 ± 0.89 | O=C1NC(=O)C(Cc2ccc(OCCNC(=O)c3ccccc3)cn2)S1 (stereo not shown) [Compound 6b, N-(2-((6-((2,4-dioxothiazolidin-5-yl)methyl)pyridin-3-yl)oxy)ethyl) benzamide] | 
9.78 | 1.38 | 3.22 ± 0.65 |  | 12.2 ± 1.21 | O=C1NC(=O)C(Cc2ccc(OCCNC(=O)c3ccccn3)cn2)S1 (stereo not shown) [Compound 6d, N-(2-((6-((2,4-dioxothiazolidin-5-yl)methyl)pyridin-3-yl)oxy)ethyl) picolinamide] | 
9.01 | 2.11 | 0.34 ± 0.15 |  | 14.5 ± 1.2 | O=C1NC(=O)C(Cc2ccc(OCCNC(=O)c3ccc(O)cc3)cn2)S1 (stereo not shown) [Compound 6j, N-(2-((6-((2,4-dioxothiazolidin-5-yl)methyl)pyridin-3-yl)oxy)ethyl)-4-hydroxybenzamide] | 
8.58 | 1.45 | 2.68 ± 0.46 | 9.34 ± 1.01 | 10.1 ± 1.12 | O=C1NC(=O)C(Cc2ccc(OCCNC(=O)c3ccc(O)cn3)cn2)S1 (stereo not shown) [Compound 6l, N-(2-((6-((2,4-dioxothiazolidin-5-yl)methyl)pyridin-3-yl)oxy)ethyl)-5-hydroxypicolinamide] | 

Compound | pKa [5] | logP [7] | EC50 [8] [µM] | EC50 [3] [µM] | EC50 [9] [µM] | further results
O=C1NC(=O)C(Cc2ccc(OCCNC(=O)c3ccccc3)cc2)S1 (stereo not shown) [Compound 6a, N-(2–(4-((2,4-dioxothiazolidin-5-yl)methyl)phenoxy)ethyl) benzamide] | 10.4 | 2.68 | 0.08 ± 0.02 |  |  | Effect in insulin tolerance test (in words) ([1]; 10 mg kg^−1 d^−1): good resistance activation to insulin; Blood glucose levels 1 h ([1]; 10 mg kg^−1 d^−1 for 15 d, 1 h after s.c. insulin 0.2 μg kg^−1): 1.801 ± 0.531 mmol/L; Blood glucose levels 2 h ([1]; 10 mg kg^−1 d^−1 for 15 d, 2 h after s.c. insulin 0.2 μg kg^−1): 2.498 ± 1.136 mmol/L; Blood glucose levels 0 h ([1]; 10 mg kg^−1 d^−1 for 15 d, fasted 12 h, before insulin): 5.644 ± 1.035 mmol/L; Cytotoxic effect (in words) ([2]; 10^−3–10^−2 mol L^−1): no obvious cytotoxic effect; Cell survival rate ([2]; 10^−2 mol l^−1): 93.1 ± 1.21%; Cell survival rate ([2]; 10^−3 mol l^−1): 98.1 ± 0.28%; Cell survival rate ([2]; 10^−4 mol l^−1): 99.3 ± 0.26%; Cell survival rate ([2]; 10^−5 mol l^−1): 99.9 ± 0.11%; Cell survival rate ([2]; 10^−6 mol l^−1): 100%; EC50 ± SD PPARα [3]: ia^b; Blood glucose levels 1 h ([4]; 10 mg kg^−1 d^−1 oral for 10 d, 1 h after sugar load): 6.342 ± 2.011 mmol/L; Blood glucose levels 2 h ([4]; 10 mg kg^−1 d^−1 oral for 10 d, 2 h after sugar load): 3.368 ± 1.341 mmol/L; Blood glucose levels 0 h ([4]; 10 mg kg^−1 d^−1 oral for 10 d, fasted 12 h, before sugar load): 3.376 ± 0.361 mmol/L; Effect in glucose tolerance test (in words) ([4]; 10 mg kg^−1 d^−1 oral, 10 d): good resistance activation to glucose; LD50 ± SD [6]: 2313.6 ± 1.26 mg/kg
